What was measured:
tumor transplant model = settings: in vivo; cited from earlier work
S1P receptor = settings: with the exception of S1P2; by stable internalization; cited from earlier work
[1] = system: MDA-MB-231 breast cancer cells; experiment: S1P-induced cytoskeletal rearrangement / cell rounding; type: cell-based, human
Method: MDA-MB-231 breast cancer cells are cultured on collagen-coated coverslips in the presence of 10% FBS using standard techniques. Because S1P is present at high concentrations in serum, BCCs are “serum-starved” in Dulbecco's modified Eagle medium (DMEM) for 12 hours prior to experimental manipulation. S1P is solubilized with bovine serum albumin (BSA) carrier and administered at a final concentration of 1 nM to 1 μM. Coverslips are collected at representative time points such as 10 minutes, 1 hr., 2 hrs., 4 hrs., and 6 hrs., fixed with 4% paraformaldehyde, and stained with rhodamine-conjugated phalloidin to label cytoskeletal actin.
The cell rounding experiment can be performed using an antagonist of S1P that binds to S1P3. […] Serum-starved MDA-MB-231 cells are incubated with preimmune serum or S1P3-reactive antiserum for 15 minutes prior to a 30-minute exposure to 10 nM S1P, then evaluated for response both in % cells responding and average cell area.
MDA-MB-231 cells are grown under standard culture conditions and serum starved for 24 hours prior to experimental manipulation. […] 30 minutes after S1P administration, cells are fixed with 4% paraformaldehyde, stained with rhodamine-conjugated phalloidin, and visualized with fluorescence microscopy. Rounded cells are counted by an experimenter blinded to the identity of the sample. Cell area is determined by quantification with imageJ software.

MDA-MB-231 cells [2] = experiment: Tamoxifen toxicity, cell viability by phase contrast microscopy; type: cell-based, human
Method: The experiment can be performed first without a S1P antagonist. MDA-MB-231 cells are cultured under standard conditions in […] supplemented with 10% fetal bovine serum and glutamate. Cells are grown in the absence of serum for 24 hours prior to experimental manipulation. Tamoxifen (Tam) and S1P are added to the media at the indicated concentrations for the indicated times at the appropriate concentrations (e.g., 3 μM Tam, 10 μM Tam, and 20 μM Tam) for appropriate times (e.g., 6 hrs. and 24 hrs.). Cell viability is observed by direct illumination with an inverted phase contrast microscope.
The tamoxifen toxicity experiment can be performed using an antagonist of S1P that binds to S1P3. For example, the antiserum described in Example 1 can be employed. MDA-MB-231 cells are cultured under standard conditions in Dulbecco's Minimal Essential Media supplemented with 10% fetal bovine serum and glutamate. Serum concentration is reduced to 1% for 24 hours prior to experimental manipulation. Tamoxifen and S1P are added to the media at the appropriate concentrations (e.g., 0 μM Tam, 10 μM Tam, and 20 μM Tam) for appropriate times (e.g., 6 hrs. and 24 hrs.). Cell viability is observed by direct illumination with an inverted phase contrast microscope.

MCF-7 cells = experiment: Cell death by annexin V assay; type: cell-based, human
Method: Quantification of cell death can be performed with an annexin V assay. Serum-starved cells can be treated overnight with […] tamoxifen in the presence or absence of 500 nM S1P, then collected by trypsinization, and labeled with Alexafluor 488-conjugated annexin V (Invitrogen Corp, Carlsbad, Calif.) per manufacturer's protocol. Cells can be counted on a FACSAria cell sorting system and analyzed with FACSDiva software (BD Biosciences, San Jose, Calif.). […] This effect is attenuated by co-administration of 500 nM S1P.

MDA-MB-231 cells [3] = experiment: Cell motility, modified Boyden's chamber assay; type: cell-based, human; settings: 1 μM S1P; two hour time point
Method: Cell motility is determined using a modified Boyden's chamber assay. MDA-MB-231 cells are introduced into the upper wells of collagen-coated chambers in serum-free DMEM and incubated for 30 minutes before the addition of either 1 μM S1P in BSA or BSA alone. At the indicated times, wells are isolated and fixed with 4% paraformaldehyde before non-migrated cells in the upper well are removed with a cotton swab. Membranes are then stained with DAPI to visualize individual migrated cells on the bottom of the membranes. Results shown are the averages of three independent experiments. Determination of the effect of S1P3 blocking antibodies on the migration of cancer cells can be performed as follows. The effect of S1P3 blocking antibodies is determined using a modified Boyden chamber assay as described above. In this case, an appropriate cell line (such as […]) is seeded into the upper chamber of the transwell and pre-treated with a blocking antibody or control antibody. […] Cells are then fixed and counted as described above. The anti-migratory effect of the blocking antibody is determined by comparing the number of migrated cells in the presence of the antibody to the number of migrated cells in the presence of an appropriate control antibody under the same stimulatory conditions.

For `CCCCCCCCc1ccc(CCC(N)(CO)CO)cc1` [FTY720], the “effect on angiogenesis and tumor growth” value (tumor transplant model) is given as “inhibit angiogenesis and subsequent growth” and the “inhibition of S1P receptors” value (S1P receptor) is given as “effectively inhibit four of the five known receptors”.
With `CCCCCCCCCCCCC/C=C/[C@@H](O)[C@@H](N)COP(=O)(O)O` [S1P, Sphingosine 1-phosphate] the cell shape change ([1]; 1 nM S1P) was “minor cell shape changes”, the cell shape change ([1]; 10 nM S1P) was “dramatic cell rounding” and the “cell viability under tamoxifen with S1P” value (MDA-MB-231 cells [2]; serum-free, 6 hours, media supplemented with 1 μM S1P) was “many viable cells remain”. For the same compound, the “cell viability under tamoxifen with S1P” value (MDA-MB-231 cells [2]; serum-free, 24 hour, addition of S1P) was “markedly improves survival”, the “effect on tamoxifen-induced annexin V binding” value (MCF-7 cells; co-administration of 500 nM S1P) was “attenuated” and the “increase in migrated cells compared to vehicle control” value (MDA-MB-231 cells [3]) was “nearly two-fold increase”.
In the case of `CC/C(=C(\c1ccccc1)c1ccc(OCCN(C)C)cc1)c1ccccc1` [Tamoxifen], the cell viability (MDA-MB-231 cells [2]; 1% FBS, 6 hours, 10 μM Tam) is reported as “appear normal”, the cell viability (MDA-MB-231 cells [2]; 1% FBS, 6 hours, 20 μM Tam) is reported as “begin to show evidence of cell death” and the cell viability (MDA-MB-231 cells [2]; 24 hours, 10 μM Tam, control conditions) is reported as “most cells remain healthy”. The cell viability (MDA-MB-231 cells [2]; serum-free, 6 hours, 10 μM tamoxifen) was “only a few viable cells remain”, the cell viability (MDA-MB-231 cells [2]; serum-free, 6 hours, 20 μM tamoxifen) was “all cells are dead/dying” and the cell viability (MDA-MB-231 cells [2]; serum-free, 24 hour, 3 μM tamoxifen) was “most control cells are lost”. The cell viability (MDA-MB-231 cells [2]; serum-free, 24 hour, 10 μM tamoxifen) was “cell death is complete” and the “annexin V binding (apoptotic cell death)” value (MCF-7 cells; overnight treatment of MCF-7 cells) was “increase in annexin V binding”.

Source: patent US8212010B2, “Sphingosine 1-phosphate antagonism” (Expression Drug Designs, LLC, priority 2008, dated 2012)
